Laboratory results reported in paper PMC7580997 (Journal of medicinal chemistry, 2019).

Columns and labels:
BIR3 domain of cIAP1 = BIR3 domain of cIAP1 (Homo sapiens, UniProt Q13490); assay: LC-MS of protein-compound covalent adduct, cIAP1-BIR3
A549 cells = assay: IncuCyte S3 Caspase-3/7 apoptosis assay, A549; type: cell-based; details: nanomolar concentration
[1] = Solubility and chemical stability in aqueous buffer by 1H 1D NMR; type: physicochemical; details: aqueous buffer pH = 7.5, T = 25 °C
SK-MEL-28 cells = assay: IncuCyte S3 Caspase-3/7 apoptosis assay, SK-MEL-28; type: cell-based, human; details: SK-MEL-28, co-treatment with TNFα, nanomolar concentration
Plasma stability = type: in vitro ADME; details: mouse plasma 80% in PBS pH 7.4, 37 °C, 200 μM
HA-BIR3 of XIAP = HA-BIR3 of XIAP (Homo sapiens, UniProt P98170); assay: Western blot; type: cell-based; details: HEK293T, 10 μM, 6 h
HA-BIR3 of XIAP, sequence (P98170 253-347 limits assumed): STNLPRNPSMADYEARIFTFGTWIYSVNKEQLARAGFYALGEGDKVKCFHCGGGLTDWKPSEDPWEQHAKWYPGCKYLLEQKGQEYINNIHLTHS

BIR3 domain of cIAP1, sequence (Q13490 258-363 limits assumed): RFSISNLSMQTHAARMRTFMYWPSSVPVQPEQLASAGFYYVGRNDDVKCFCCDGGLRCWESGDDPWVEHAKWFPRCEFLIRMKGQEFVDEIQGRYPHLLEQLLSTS

solubility in aqueous buffer (soluble up to) [1] | plasma stability t1/2 (Plasma stability) | stabilization of HA-BIR3 in cell (western blot band intensity) (HA-BIR3 of XIAP) | SMILES | mass increase of cIAP1-BIR3 (covalent adduct) (BIR3 domain of cIAP1) | induction of apoptosis by co-treatment with TNFα (A549 cells) | induction of apoptosis by co-treatment with TNFα (SK-MEL-28 cells)
 |  |  | CN[C@@H](C)C(=O)N[C@@H](Cc1ccc(OS(=O)(=O)F)cc1)C(=O)N1CCC[C@H]1C(=O)N[C@@H]1CCc2c(F)cccc21 [Compound 1, 4-((S)-3-((S)-2-(((R)-4-fluoro-2,3-dihydro-1-H-inden-1-yl)carbamoyl)pyrrolidin-1yl)-2-((S)-2-(methylamino)propanamido)-3-oxopropyl)phenyl sulfurofluoridate] | no increase in mass |  | 
similar | similar | stabilized the BIR3 domain | CN[C@@H](C)C(=O)N[C@H]1CN(C(=O)CC(C)C)CC[C@H]2CC[C@@H](C(=O)NC(c3ccccc3)c3ccccc3)N2C1=O [AT406] |  | Time- and dose-dependent apoptosis was restored | Time- and dose-dependent apoptosis was restored
similar | similar | stabilized the BIR3 domain | CN[C@@H](C)C(=O)N[C@H](C(=O)N1CCC[C@H]1c1nc(C(=O)c2ccc(F)cc2)cs1)C1CCCCC1 [LCL161] |  | Time- and dose-dependent apoptosis was restored | Time- and dose-dependent apoptosis was restored
